The values that follow come from publication PMC12744750 (Plant Communications, 2025).

The nature of test [1]: Anaerobic Cu(I) titration monitored by UV-vis and fluorescence spectra. Conditions: 19.8 μM synthetic PLS, titration with CuCl; features at 242 nm and 306 nm. It is filed as binding. As for the experimental part:
Freeze-dried synthetic PLS peptide (Cambridge Research Biochemicals) was dissolved in DMSO. An aliquot was added to aqueous buffer (10 mM HEPES [pH 7], 20 mM NaCl, 80 mM KCl), and absorbance was recorded at 280 nm. PLS concentration was estimated from the absorbance and the ProtParam estimated extinction coefficient of 2980 M^−1 cm^−1. Concurrently, a sample was submitted for quantitative amino acid analysis (Abingdon Health Laboratory Services). From this analysis, a conversion factor of 2.27 was generated, which was applied to the concentrations determined by A280 nm.
All Cu(I) titration experiments were carried out in an anaerobic chamber (Belle Technology) using metal-free CHELEX-treated, degassed buffers. […] The reductant NH2OH was included at a final concentration of 1 mM to maintain Cu(I) in its reduced state. […] After each addition, solutions were thoroughly mixed and absorbance spectra recorded using a Lambda 35 UV/Vis spectrophotometer (PerkinElmer). Titration isotherm data were fitted using simulated affinity curves with DynaFit ([Kuzmič, 2009]).

In the next test the test system is ETR1. The test can be described thus: Yeast 2-hybrid PLS-ETR1. It is filed as binding, Arabidopsis. Particulars: preliminary yeast 2-hybrid, YRG-2 strain. Here is the method:
The GAL4 2-hybrid phagemid vector system was used to detect protein–protein interactions in vivo in yeast, using the reporter genes β-galactosidase (lacZ) and histidine (HIS3) in the YRG-2 yeast strain, essentially as described previously ([Zhong et al., 2008]). DNA sequences encoding the target (ETR1) and bait (PLS) were inserted into the pAD-GAL4-2.1 A and pBD-GAL4 Cam phagemid vectors, respectively, and expressed as hybrid proteins. The hybrid proteins were then assayed for protein–protein interaction.
DNA sequences encoding the target and bait proteins were prepared by PCR amplification using primers designed specifically for the target (ETR1) and bait (PLS). Each set of primers contained specific endonuclease recognition sites on the ends corresponding to the restriction sites in the MCS of the pAD-GAL4-2.1 A and pBD-GAL4 Cam phagemid vectors. The DNA constructs for the target (ETR1) and bait (PLS) with specific restriction sites on the ends were then transformed into the TOPO 2.1 vector, and the sequence of the amplified DNA was confirmed by sequencing with M13 forward (CTG GCC GTC GTT TTA C) and M13 reverse (CAG GAA ACA GCT ATG AC) primers. […] The DNA sequences encoding the target (ETR1) and bait (PLS) were then ligated into the same reading frame as the GAL4 AD of the pAD-GAL4-2.1 phagemid vector and the GAL4 BD of the pBD-GAL4 Cam phagemid vector. […]

A further test addresses T1, ETR1^306-738 (Arabidopsis thaliana, UniProt P49333).
T1 construct: made in house
T1 sequence (P49333 306-738): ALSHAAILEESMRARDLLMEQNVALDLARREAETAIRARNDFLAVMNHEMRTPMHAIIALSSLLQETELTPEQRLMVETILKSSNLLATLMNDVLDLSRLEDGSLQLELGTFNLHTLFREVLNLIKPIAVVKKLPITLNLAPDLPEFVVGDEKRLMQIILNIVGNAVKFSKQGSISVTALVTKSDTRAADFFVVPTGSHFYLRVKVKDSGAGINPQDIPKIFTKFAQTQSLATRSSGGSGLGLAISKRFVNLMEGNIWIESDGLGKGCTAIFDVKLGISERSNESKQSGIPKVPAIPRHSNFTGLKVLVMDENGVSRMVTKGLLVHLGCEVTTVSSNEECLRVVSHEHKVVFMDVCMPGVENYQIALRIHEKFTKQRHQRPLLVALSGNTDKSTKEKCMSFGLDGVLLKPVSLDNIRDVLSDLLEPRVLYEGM
Description: Microscale thermophoresis, PLS binding to ETR1 lacking the transmembrane domain. Particulars: MST, as full-length; ETR1^306-738 lacking N-terminal transmembrane domain; listed as PLS. Here is the method:
Fluorescently labeled ETR1 truncation mutants ([Milić et al., 2018]) were added to a dilution series of synthetic PLS in 50 mM HEPES, 150 mM NaCl, and 0.015% (w/v) FosCholine 16 (pH 7.6) or 50 mM Tris, 300 mM NaCl, and 0.015% (w/v) FosCholine 16 (pH 7.6). Dissociation constants were calculated using GraphPad Prism 5.
Full-length ETR1 and its truncation mutants were purified and labeled as described previously ([Milić et al., 2018]). Synthetic PLS (94 μM) was diluted serially in 50 mM Tris and 300 mM NaCl (pH 7.6). Fluorescently labeled receptor was added at a final concentration of 50 nM. Thermophoretic behavior was measured in premium capillaries at 50% LED and 50% microscale thermophoresis power. In case of a binding event, data were fitted using GraphPad Prism 5.
On the technique in general: In MST a laser heats a spot of the sample, and binding alters the fluorescence response.

The nature of test [2]: Titration of PLS in the presence of BCA2-Cu(I) complex. It is filed as binding. Conditions: PLS serially diluted from 496 µM to 214 nM; 125 µM BCA, 50 µM CuCl, 50 mM HEPES, 150 mM NaCl, 20 mM ascorbate, pH 7.6; A562 nm, n = 3. Here is the method: Figure S9. Titration of PLS in the presence of BCA2-Cu(I)-Complex.
A solution of synthetic PLS in 50 µl buffer (50 mM HEPES, 150 mM NaCl, pH 7.6) was serially diluted from 496 µM to 214 nM. After the addition of 50 µl BCA2-Cu(I) buffer (50 mM HEPES, 150 mM NaCl, 20 mM ascorbate, 125 µM BCA, 50 µM CuCl, pH 7.6) the absorbance at 562 nm was measured. Discoloration of the pink BCA2-Cu(I) complex visible in the decrease of absorption at higher peptide concentration indicates […]
chelator BCA. Bars represent means ± SD, n = 3.
(1 picture or pasted object on this page, not shown here)

Regarding “PLS(FL): full-length 36-amino-acid PLS peptide from Arabidopsis (MKPRLCFNFRRRSISPCYISISYLLVAKLFKLFKIH)”, in test [1], the “Cu(I)-dependent change of UV-vis and fluorescence spectra” value is “consistent with complex formation”. In the test with ETR1, the “interaction with ETR1” value is reported as “interacts with ETR1”. Also, in the test with ETR1^306-738, the “binding (dissociation constant)” value was “no binding was detected”. Moreover, the “competition for copper with BCA” value in test [2] was “able to effectively compete and remove copper”.
